From ChEMBL document CHEMBL2202952, “Marthiapeptide A, an anti-infective and cytotoxic polythiazole cyclopeptide from a 60 L scale fermentation of the deep sea-derived Marinactinospora thermotolerans SCSIO 00652” (J Nat Prod, 2012)
In brackets after ≈: the same amount, converted by molar mass. Activity calls are given as the source filed them. The rule behind the calls is not given here.

Columns and labels:
Bacillus subtilis = assay: Antimicrobial activity against Bacillus subtilis ATCC 6633; type: functional
Micrococcus luteus = assay: Antimicrobial activity against Micrococcus luteus; type: functional
[1] = Antimicrobial activity against Aeromonas hydrophila subsp. hydrophila ATCC 7966; type: functional
Bacillus thuringiensis = assay: Antimicrobial activity against Bacillus thuringiensis; type: functional
Staphylococcus aureus = assay: Antimicrobial activity against Staphylococcus aureus ATCC 29213; type: functional
Escherichia coli [2] = assay: Antimicrobial activity against Escherichia coli ATCC 25922; type: functional
Escherichia coli [3] = assay: Antimicrobial activity against Escherichia coli DH5[alpha]; type: functional
SF-268 [4] = assay: Potency index, ratio of IC50 for cisplatin to IC50 for test compound against human SF268 cells by SRB method; type: functional
MCF7 [5] = assay: Potency index, ratio of IC50 for cisplatin to IC50 for test compound against human MCF7 cells by SRB method; type: functional
MCF7 [6] = assay: Cytotoxicity against human MCF7 cells by SRB method; type: functional, cell-based
Nucleic Acid [7] = assay: Effect on F21T G-quadruplex DNA thermal stabilization assessed as change in melting temperature at 2 uM by FRET; type: nucleic-acid assay
NCI-H460 [8] = assay: Potency index, ratio of IC50 for cisplatin to IC50 for test compound against human NCI-H460 cells by SRB method; type: functional
SF-268 [9] = assay: Cytotoxicity against human SF268 cells by SRB method; type: functional, cell-based
HepG2 [10] = assay: Potency index, ratio of IC50 for cisplatin to IC50 for test compound against human HepG2 cells by SRB method; type: functional
HepG2 [11] = assay: Cytotoxicity against human HepG2 cells by SRB method; type: functional, cell-based
Nucleic Acid [12] = assay: Binding affinity to human telomeric intramolecular HTG21 G-quadruplex DNA at 20 uM by CD spectroscopy; type: nucleic-acid assay
NCI-H460 [13] = assay: Cytotoxicity against human NCI-H460 cells by SRB method; type: functional, cell-based

| Compound | MIC (Bacillus subtilis) [µg/mL] | MIC (Micrococcus luteus) [µg/mL] | MIC [1] [µg/mL] | MIC (Bacillus thuringiensis) [µg/mL] | MIC (Staphylococcus aureus) [µg/mL] | MIC (Escherichia coli [2]) [µg/mL] | MIC (Escherichia coli [3]) [µg/mL] | Ratio IC50 (SF-268 [4]) | Ratio IC50 (MCF7 [5]) | IC50 (MCF7 [6]) [nM] | ΔTm (Nucleic Acid [7]) [°C] | Ratio IC50 (NCI-H460 [8]) | IC50 (SF-268 [9]) [nM] | Ratio IC50 (HepG2 [10]) | IC50 (HepG2 [11]) [nM] | Activity (Nucleic Acid [12]) | IC50 (NCI-H460 [13]) [nM] |
| --- | --- | --- | --- | --- | --- | --- | --- | --- | --- | --- | --- | --- | --- | --- | --- | --- | --- |
| CC[C@H]1OC(=O)[C@H](C)[C@@H](O[C@H]2C[C@@](C)(OC)[C@@H](O)[C@H](C)O2)[C@H](C)[C@@H](O[C@@H]2O[C@H](C)C[C@H](N(C)C)[C@H]2O)[C@](C)(O)C[C@@H](C)C(=O)[C@H](C)[C@@H](O)[C@]1(C)O [ERYTHROMYCIN] | < 1 | < 1 | 4 (≈ 5.45 µM) | < 1 | 16 (≈ 21.8 µM) | 32 (≈ 43.6 µM) | 64 (≈ 87.2 µM) | – | – | – | – | – | – | – | – | – | – |
| NC[C@H]1O[C@H](O[C@H]2[C@H](O)[C@@H](O[C@H]3O[C@H](CO)[C@@H](O)[C@H](N)[C@H]3O)[C@H](N)C[C@@H]2N)[C@H](O)[C@@H](O)[C@@H]1O [KANAMYCIN] | < 1 | 32 (≈ 66 µM) | < 1 | 4 (≈ 8.26 µM) | 8 (≈ 16.5 µM) | 16 (≈ 33 µM) | 32 (≈ 66 µM) | – | – | – | – | – | – | – | – | – | – |
| CC[C@H](C)[C@@H]1NC(=O)[C@@H](Cc2ccccc2)NC(=O)[C@@H]2CSC(=N2)c2csc(n2)-c2csc(n2)-c2csc(n2)[C@@H](C)NC1=O [MARTHIAPEPTIDE A] | 4 (≈ 6.01 µM) | 2 (≈ 3 µM) | > 128 | 2 (≈ 3 µM) | 8 (≈ 12 µM) | > 128 | > 128 | 5 | 5 | 430 | 0.9 | 5 | 380 | 5 | 520 | inactive | 470 |
